Measurements taken from PMC12254266, “Multicolored sequential resonance energy transfer for detection of simultaneous ligand binding at G protein-coupled receptors” (Nature Communications, 2025).
“And” between values parts separate entries of the source, which are not always exact repeats. Equal entries are not always repeated. Blank lines part the entries; values can stand above or below the molecule they belong to.

Key:
[1] = biological target: FFA1 (Homo sapiens, UniProt O14842); assay: Ca2+ mobilisation (Fura2) in Flp-In T-REx 293 cells expressing Nluc-FFA1, FFA1-Nluc or untagged FFA1; assay type: cell-based; design: expressed in transfected cells
Sequence of FFA1 (O14842 whole entry): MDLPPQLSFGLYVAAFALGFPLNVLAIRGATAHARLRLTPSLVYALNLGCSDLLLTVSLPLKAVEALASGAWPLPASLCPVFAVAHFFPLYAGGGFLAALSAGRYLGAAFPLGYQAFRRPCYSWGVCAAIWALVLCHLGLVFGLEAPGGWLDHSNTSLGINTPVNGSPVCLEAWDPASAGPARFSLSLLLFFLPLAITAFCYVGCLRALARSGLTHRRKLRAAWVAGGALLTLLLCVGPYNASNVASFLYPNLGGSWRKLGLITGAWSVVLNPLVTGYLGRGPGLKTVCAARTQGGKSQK
Summary of the method: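 520 nm emission read at 340 and 380 nm excitation over 90 s spanning compound addition. Response taken as peak 340/380 ratio after subtracting pre-addition ratios.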

[2] = biological target: FFA1-Nluc (Homo sapiens, UniProt O14842); assay: NanoBRET binding (saturation, kinetics) at C terminal Nluc tagged FFA1; design: expressed in transfected cells; conditions: FFA1-Nluc, 95% confidence interval in parentheses
Sequence of FFA1-Nluc (O14842 whole entry): as above
Description: (§1) Nluc-FFA1 or FFA1-Nluc Flp-In T-REx 293 cells were plated at 50,000 cells per well in poly-D-lysine coated white 96-well plates. Cells were cultured for 24 h in the plate before medium was replaced with medium containing 100 ng/mL of doxycycline to induce receptor expression. After culturing for a further 24 h, medium was removed, cells were washed with HBSS and incubated in HBSS for 30 min. To start the assay, NanoGlo substrate (Promega, N1110) was added to the cells at a 1:800 final dilution and incubated for 10 min at 37 °C. For endpoint assays, including both saturation and competition binding, test ligands were then added, including both fluorescent and unlabelled competing ligands as indicated, and plates incubated for a further 5 min at 37 °C. NanoBRET was then quantified in a CLARIOstar microplate reader (BMG Labtech) by measuring luminescent emission with the monochrometer set for the Nluc donor at 450–60 nm, and acceptor luminescent emission 540–60 nm (NBD), 600–80 nm (Cy3.5) or 690–100 nm (SulfoCy5), depending on which fluorophore was being tested. The acceptor/donor BRET ratio was then taken as a measure of fluorophore binding. For kinetic on then off NanoBRET experiments plates were washed the same way and substrate was added to the same concentration. However, 10 min after substrate was added plates were inserted into the CLARIOstar microplate reader set to 25 °C to take repeated measurements of luminescent emission for both the donor and the acceptor fluorophore being used. After 5 min of background measurements, the indicated concentration of fluorescent ligand was added using the plate reader injector and luminescent emission was monitored for ~10 min before the reader was paused to manually add a high concentration of appropriate competing ligand to initiate dissociation. The plate was returned to the reader and luminescence measurements were continued for a further 30 min to monitor dissociation of the fluorescent ligand. For kinetic experiments using multiple concentrations of fluorescent ligand, cells were placed in the plate reader immediately after the addition of Nano-Glo substrate and luminescent measurements were taken. After 5 min, the reader was paused to add the indicated concentrations of fluorescent ligand, before measurements were continued. To set non-specific binding for kinetic experiments, the indicated competing ligand was added 5 min before the addition of the fluorescent ligand.

[3] = biological target: T1, Nluc-FFA1 (Homo sapiens, UniProt O14842); assay: NanoBRET binding (saturation, competition, kinetics) at N terminal Nluc tagged FFA1; conditions: Nluc-FFA1
T1 construct: expressed in transfected cells
T1 sequence (O14842 whole entry): as above
Description: as §1

[4] = biological target: T1, Nluc-FFA1; assay: DISCo-BRET with TUG-2591 and TUG-2597 at N terminal Nluc tagged FFA1; assay type: binding; conditions: Figure 3F, 10 nM, technical duplicate
Description: Nluc-FFA1 or FFA1-Nluc Flp-In T-REx 293 cells were plated at 50,000 cells per well in poly-D-lysine coated white 96-well plates. Cells were cultured for 24 h in the plate before medium was replaced with medium containing 100 ng/mL of doxycycline to induce receptor expression. After culturing for a further 24 h, culture medium was removed, cells washed with HBSS and incubated in HBSS for 30 min. For all DISCo-BRET formats Nano-Glo substrate was then added at a 1:800 final dilution and cells incubated for 10 min. Following substrate addition experimental set up different among the three formats: endpoint, spectra scan, and kinetics.
For endpoint experiments all fluorescent and unlabelled ligands were added to the cells and incubated for 5 min at 37 °C. Luminescent emission was then measured using a CLARIOstar microplate reader with monochromator set at 450–60 nm (Nluc), 540−60 nm (NBD) and 690–100 nm (SulfoCy5). BRET ratios were then calculated as either SulfoCy5 emission divided by NBD emission, SulfoCy5 emission divided by Nluc emission, or NBD emission divided by Nluc emission.
For spectra scan experiments all indicated fluorescent and unlabelled ligands were added to the cells and cells incubated for 5 min at 37 °C. Luminescence emissions were then measured from each well of the plate from 440 nm – 740 nm with a 5 nm resolution using a CLARIOstar microplate. […]

- pEC50 ([1]; Ca2+ data, mean±SEM, NR = No response): 5.43±0.06
- Ca2+ Response as a % of T360 Response ([1]; FFA1-Nluc cells, log[ligand] -7, technical replicates): -1.03% and 4.29% and 0.96%
- Ca2+ Response as a % of T360 Response ([1]; Nluc-FFA1 cells, log[ligand] -7.5, technical replicates): 2.49% (2×) and 2.03%
- Ca2+ Response as a % of T360 Response ([1]; Nluc-FFA1 cells, log[ligand] -8, technical replicates): 0.05% and 1.00% and 0.97% and 1.13%
- EMax ([1]; percentage of response to 10 μM T360, NR = No response): 87±10%
- Kd ([2]; read-out: Kd, saturation BRET binding): 240 nM
- BMax, saturation BRET binding ([2]; specific BRET): 0.022 (0.015−0.038)
- Kd ([3]; 95% confidence interval in parentheses, read-out: Kd, saturation BRET binding): 520 nM
- BMax, saturation BRET binding ([3]; specific BRET, 95% confidence interval in parentheses): 0.083 (0.060−0.14)
Structure (SMILES): Cc1cc(OCCOCCNC(=O)CCCCCN2\C(=C/C=C/C=C/C3=[N+](C)c4ccc(S(=O)(=O)[O-])cc4C3(C)C)C(C)(C)c3ccccc32)ccc1-c1cccc(COc2ccc(CCC(=O)O)c(F)c2)c1 [TUG-2355]
- Ca2+ Response as a % of T360 Response ([1]; FFA1-Nluc cells, log[ligand] -7.5, technical replicates): 1.35% and 1.54% and 1.46% and 0.43% and 0.51% and 0.58%
- Ca2+ Response as a % of T360 Response ([1]; FFA1-Nluc, log[TUG-2355] -5, technical triplicates): 62.07 % of T360 Response and 53.90 % of T360 Response and 49.62 % of T360 Response and 44.94 % of T360 Response and 53.23 % of T360 Response and 56.24 % of T360 Response and 74.69 % of T360 Response and 72.06 % of T360 Response
- Ca2+ Response as a % of T360 Response ([1]; Nluc-FFA1, log[TUG-2355] -5, technical triplicates): 78.72 % of T360 Response and 80.47 % of T360 Response and 78.90 % of T360 Response and 53.23 % of T360 Response and 56.24 % of T360 Response and 77.92 % of T360 Response and 57.96 % of T360 Response and 82.25 % of T360 Response
- Ca2+ Response as a % of T360 Response ([1]; Nluc-FFA1 cells, log[ligand] -7, technical replicates): 1.27% and 0.43% and 0.51% and 0.58% and 0.96% and 2.49%
- Ca2+ Response as a % of T360 Response ([1]; log[Ligand] -4.5, single technical replicates): 81.14% and 82.71% and 91.68% and 50.63% and 60.58% and 55.59% and 78.02% and 80.44% and 71.73%
- Ca2+ Response as a % of T360 Response ([1]; log[Ligand] -5, single technical replicates): 78.72% and 80.47% and 78.90% and 53.23% and 56.24% and 77.92% and 57.96% and 82.25%
- Ca2+ Response as a % of T360 Response ([1]; log[Ligand] -5.5, single technical replicates): 47.56% and 39.50% and 44.99% and 26.68% and 35.66% and 31.10% and 60.09% and 62.76% and 60.18%
- Ca2+ Response as a % of T360 Response ([1]; log[Ligand] -6, single technical replicates): 6.20% and 5.86% and 4.09% and -1.05% and -0.0134% and -0.48% and -1.46% and 7.50% and -1.37%
- Ca2+ Response as a % of T360 Response ([1]; log[Ligand] -6.5, single technical replicates): 0.81% and -1.43% and -1.40% and -2.16% and -1.38% and 1.40% and -3.04% and 3.51% and -1.19%
- Ca2+ Response as a % of T360 Response ([1]; log[Ligand] -7, single technical replicates): 1.12% and 1.72% and 2.65% and -2.38% and -2.12% and 0.39% and -2.69% and 2.22% and 0.50%
- Ca2+ Response as a % of T360 Response ([1]; log[Ligand] -8, single technical replicates): -2.32% and 0.08% and 1.34% and 0.25% and -0.22% and -1.88% and -1.89% and 3.89% and -2.52%
- Specific BRET ([3]; [TUG-2355] 1000 nM, technical triplicates): 0.0476 and 0.0570 and 0.0671 and 0.0472 and 0.0443 and 0.0544

Structure (SMILES): Cc1cc(OCCCNC(=O)CCCN2\C(=C/C=C/C=C/C3=[N+](C)c4ccc(S(=O)(=O)[O-])cc4C3(C)C)C(C)(C)c3ccccc32)ccc1-c1cccc(COc2ccc(CCC(=O)O)c(F)c2)c1 [TUG-TUG-2591]
- Area under the curve from luminecent emission, Total [4]: 0.1968 and 0.1494 and 0.1776 and 0.1635 and 0.1742 and 0.2754
